The nature of the data set: Determination of the log P values by HPLC (formic acid method). The class given is physicochemical. The conditions noted are these: reversed-phase column (C 18), acidic range (pH 3.4), 55° C.; for chromatographic logP: reversed-phase HPLC column (C 18). The protocol: 1) Description of Method for Determination of the Log P Values (Formic Acid Method)
Eluents for determination in the acidic range (pH 3.4):
Eluent A: acetonitrile+1 ml of formic acid/liter. Eluent B: water+0.9 ml of formic acid/liter.
The lambda max values were determined in the maxima of the chromatographic signals using the UV spectra from 200 nm to 400 nm.

By log P is commonly meant the decadic logarithm of the partition coefficient of the neutral form, usually between octanol and water. For `Cn1nc(C(F)(F)F)c(C(=O)Nc2ccn(-c3ncc(F)cc3F)n2)c1F` [Compound I-1-158], the “log P” value was found to be 2.36.

For `O=C(Nc1ccn(-c2ncc(F)cc2F)n1)c1snc(Cl)c1Cl` [Compound I-1-159], the “log P” value is recorded as 3.06.

With `Cc1nnsc1C(=O)Nc1ccn(-c2ncc(F)cc2F)n1` [Compound I-1-160], the “log P” value amounted to 1.91.

Turning to `O=C(Nc1ccn(-c2nc(F)c(F)cc2F)n1)c1ccccc1C(F)(F)F` [Compound I-1-162], the “log P” value is 2.78.

`O=C(Nc1ccn(-c2nc(F)c(F)cc2F)n1)c1ccccc1Cl` [Compound I-1-163]: the “log P” value is reported as 2.64. The log P values of the last two molecules are within 0.2 log units of each other.

What is called chromatographic logP is a lipophilicity value derived from retention on a column. A high value points to higher lipophilicity. On to `O=C(Nc1ccn(-c2nc(F)c(F)cc2F)n1)c1ccccc1Br` [Compound I-1-164, 2-Bromo-N-[1-(3,5,6-trifluoropyridin-2-yl)-1H-pyrazol-3-yl]benzamide], for which the chromatographic logP stood at 2.68.

Turning to `O=C(Nc1ccn(-c2nc(F)c(F)cc2F)n1)c1ccccc1I` [Compound I-1-165], the “log P” value is 3.04.

With `O=C(Nc1ccn(-c2nc(F)c(F)cc2F)n1)c1c(F)cccc1F` [Compound I-1-166], the “log P” value stood at 2.51.

As for `O=C(Nc1ccn(-c2nc(F)c(F)cc2F)n1)c1ncccc1C(F)(F)F` [Compound I-1-167], the log partition coefficient (log P) was 3.88.

Take `O=C(Nc1ccn(-c2ncccn2)n1)c1ccccc1Br` [Compound I-1-168]: the “log P” value is reported as 1.72.

`O=C(Nc1ccn(-c2ncnc(F)c2F)n1)c1ccccc1C(F)(F)F` [Compound I-1-169, N-[1-(5,6-Difluoropyrimidin-4-yl)-1H-pyrazol-3-yl]-2-(trifluoromethyl)benzamide] had a chromatographic logP of 2.62.

On to `O=C(Nc1ccn(-c2ncnc(F)c2F)n1)c1ccccc1Br` [Compound I-1-170], for which the “log P” value came to 2.46.

Consider `O=C(Nc1ccn(-c2ncnc(F)c2F)n1)c1c(F)cccc1F` [Compound I-1-171], for which the “log P” value is reported as 2.29.

For the molecule `O=C(Nc1ccn(-c2nccnc2F)n1)c1ccccc1C(F)(F)F` [Compound I-1-173], the “log P” value worked out at 2.24. This log P and that of the molecule before are within 0.2 log units of each other.

In turn, `O=C(Nc1ccn(-c2nccnc2F)n1)c1ccccc1Cl` [Compound I-1-174, 2-Chloro-N-[1-(3-fluoropyrazin-2-yl)-1H-pyrazol-3-yl]benzamide] registered a chromatographic logP of 2.03.

On to `O=C(Nc1ccn(-c2nccnc2F)n1)c1ccccc1Br` [Compound I-1-175], for which the “log P” value worked out at 2.09.

As to `O=C(Nc1ccn(-c2nccnc2F)n1)c1ccccc1I` [Compound I-1-176], the “log P” value is given as 2.18.

As to `O=C(Nc1ccn(-c2nccnc2F)n1)c1c(F)cccc1F` [Compound I-1-177], the lipophilicity (log P) is reported as 1.94.

Regarding `O=C(Nc1ccn(-c2nccnc2F)n1)c1ncccc1C(F)(F)F` [Compound I-1-178], the “log P” value worked out at 1.77.

As for `CS(=O)(=O)c1ccccc1-n1ccc(NC(=O)c2ccccc2C(F)(F)F)n1` [Compound I-1-179], the “log P” value is recorded as 2.13.

Consider `CS(=O)(=O)c1ccccc1-n1ccc(NC(=O)c2cccnc2C(F)(F)F)n1` [Compound I-1-180], for which the lipophilicity (log P) came to 2.00.

In the case of `CS(=O)(=O)c1ccccc1-n1ccc(NC(=O)c2c(F)cccc2F)n1` [Compound I-1-181], the “log P” value was 1.86.

As to `CS(=O)(=O)c1ccccc1-n1ccc(NC(=O)c2ccccc2Br)n1` [Compound I-1-182], the lipophilicity (log P) was found to be 2.00. This log P and that of the molecule before are within 0.2 log units of each other.

With `O=C(Nc1ccn(-c2ncc(F)cc2Cl)n1)c1ccccc1C(F)(F)F` [Compound I-1-183], the “log P” value is 2.64.

`CS(=O)(=O)c1ccccc1-n1ccc(NC(=O)c2ccccc2I)n1` [Compound I-1-184]: the “log P” value was determined as 2.10.

For `Cc1nn(C)c(C)c1C(=O)Nc1ccn(-c2ccccc2C(F)(F)F)n1` [Compound I-1-185], the “log P” value is listed as 2.16.

For `O=C(Nc1ccn(-c2cccc(Cl)c2Cl)n1)c1ccccc1Br` [Compound I-1-187], the “log P” value is on record as 3.41.

As to `O=C(Nc1ccn(-c2cccc(Cl)c2Cl)n1)c1ccccc1Cl` [Compound I-1-188], the “log P” value stood at 3.38.

For `O=C(Nc1ccn(-c2cccc(F)c2F)n1)c1ccccc1Cl` [Compound I-1-189], the “log P” value was 3.01.

Turning to `O=C(Nc1ccn(-c2cc(F)c(F)cc2F)n1)c1ccccc1C(F)(F)F` [Compound I-1-191], the “log P” value was determined as 4.04.

As for `O=C(Nc1ccn(-c2cc(F)c(F)cc2F)n1)c1cccnc1C(F)(F)F` [Compound I-1-192], the “log P” value amounted to 3.42.

On to `O=C(Nc1ccn(-c2cc(F)c(F)cc2F)n1)c1ccccc1C(F)(F)F` [Compound I-1-193], for which the “log P” value is reported as 3.73.

As to `O=C(Nc1ccn(-c2cc(F)c(F)cc2F)n1)c1ccccc1Br` [Compound I-1-194], the “log P” value was determined as 3.99.

With `O=C(Nc1ccn(-c2cc(F)c(F)cc2F)n1)c1ccccc1Cl` [Compound I-1-195], the “log P” value worked out at 3.94.

`O=C(Nc1ccn(-c2cc(F)c(F)cc2F)n1)c1ccccc1I` [Compound I-1-196]: the “log P” value came out at 4.10.

On to `O=C(Nc1ccn(-c2ccc(Cl)cc2Cl)n1)c1ccccc1C(F)(F)F` [Compound I-1-197], for which the “log P” value amounted to 3.51.

For `O=C(Nc1ccn(-c2ccc(Cl)cc2Cl)n1)c1ccccc1C(F)(F)F` [Compound I-1-198], the lipophilicity (log P) is on record as 3.25.

For `O=C(Nc1ccn(-c2ccc(Cl)cc2Cl)n1)c1ccccc1Br` [Compound I-1-199], the log partition coefficient (log P) stood at 3.44.

Consider `O=C(Nc1ccn(-c2ccc(Cl)cc2Cl)n1)c1ccccc1Cl` [Compound I-1-200], for which the “log P” value is 3.40.

For the molecule `CCc1cc(NC(=O)c2ccccc2C(F)(F)F)nn1-c1ccc(F)cc1F` [Compound I-1-201], the “log P” value worked out at 4.15.

Take `Cc1cc(NC(=O)c2ccccc2C(F)(F)F)nn1-c1ccc(F)cc1F` [Compound I-1-202]: the “log P” value amounted to 3.78.

Consider `Cc1cc(NC(=O)c2cccnc2C(F)(F)F)nn1-c1ccc(F)cc1F` [Compound I-1-203], for which the lipophilicity (log P) is given as 3.19.

For the molecule `CCc1cc(NC(=O)c2cccnc2C(F)(F)F)nn1-c1ccc(F)cc1F` [Compound I-1-204], the “log P” value turned out to be 3.58.

For `Cc1cc(NC(=O)c2c(F)cccc2F)nn1-c1ccc(F)cc1F` [Compound I-1-206], the “log P” value is recorded as 3.42.

Take `CCc1cc(NC(=O)c2c(F)cccc2F)nn1-c1ccc(F)cc1F` [Compound I-1-207]: the “log P” value is on record as 3.84.

`Cc1cc(NC(=O)c2ccccc2Br)nn1-c1ccc(F)cc1F` [Compound I-1-208]: the “log P” value is recorded as 3.63.

In the case of `O=C(Nc1ccn(-c2ccc(F)cc2F)n1)c1ccccc1Br` [Compound I-1-209], the “log P” value is recorded as 2.95.

Turning to `Cc1cc(NC(=O)c2ccccc2Cl)nn1-c1ccc(F)cc1F` [Compound I-1-212], the lipophilicity (log P) was found to be 3.58.

Consider `CCc1cc(NC(=O)c2ccccc2Cl)nn1-c1ccc(F)cc1F` [Compound I-1-213], for which the “log P” value stood at 3.99.

On to `Cc1cc(NC(=O)c2ccccc2I)nn1-c1ccc(F)cc1F` [Compound I-1-214], for which the “log P” value is given as 3.73.

Regarding `CCc1cc(NC(=O)c2ccccc2I)nn1-c1ccc(F)cc1F` [Compound I-1-215], the lipophilicity (log P) came out at 4.15.

`Cc1c(F)cnc(F)c1-n1ccc(NC(=O)c2ccccc2C(F)(F)F)n1` [Compound I-1-217]: the “log P” value is reported as 3.06.

With `O=C(Nc1ccn(-c2cc(F)ccc2F)n1)c1cccnc1Cl` [Compound I-1-218], the lipophilicity (log P) is listed as 2.28.

Source of the values: patent US9802899B2, “Heterocyclic compounds as pesticides” (BAYER CROPSCIENCE AG, priority 2012, dated 2017).
